Measured values: patent publication US20080119548A1, “Control Of Feeding Behavior By Changing Neuronal Energy Balance” (priority 2004, published 2008)
Like-named read-outs stand apart in the source and are kept apart here.

Key:
BALB/c male mice = test: Measurement of food intake after i.c.v. or i.p. injection; assay type: in vivo; settings: for reduction in food intake: compound C 5 mg i.c.v.
Protocol: Male BALB/c mice (7-9 weeks) were purchased from Charles River Laboratories (and housed in a controlled-light (12 hr light/12 hr dark cycle) environment (lights on 0200-1400 h) and allowed ad libitum access to standard laboratory chow and water. For fasting, food was withdrawn from cage at the onset of the dark cycle for 24 hr, but ad libitum access to water was allowed.
(§1) Mice were implanted with permanent stainless steel cannulae into the lateral ventricle of the brain 0.6 mm caudal to Bregma, 1.2 mm lateral to the midline, and sunk to a depth of 2.2 mm below the surface of the skull. Implanted mice were housed in individual cages and utilized for i.c.v. and i.p. injections as indicated. C75 dissolved in RPMI1640 (Gibco-BRL), AICAR (Toronto Research Chemicals Inc) or compound C (46) (FASgen, Inc.) in saline was injected i.c.v., such that desired dose could be administered in a volume of 2.5 μl, while control groups received vehicle only. Injections were done immediately preceding dark onset and food intake measurements were taken at 1 hr (0-1 hr interval), 3 hr (1-3 hr interval), and 24 hr (3-24 hr interval) after dark onset. C75 i.p./AICAR i.c.v. treatment groups were i.p. injected with 5 mg/kg bodyweight C75 dissolved in […] of glucose-free RPMI 1 hr before the dark onset, followed by 3 μg/2.5 μl saline i.c.v. AICAR immediately preceding the dark onset. Control groups received 200 μl of glucose free RPMI 1 hr before lights off and 2.5 μl of saline. Administration of i.p. compound C (10 or 30 mg/kg bodyweight) or C75 (10 mg/kg bodyweight) was followed by food intake measurement at the same times indicated.

[1] = Changes in bodyweight 24 hr after i.c.v. injection; assay type: in vivo, mice
Source text: as §1, with “(d) Changes in bodyweight 24 hr after i.c.v. injection of C75, AICAR or compound C (n=4-10). Mice” for “Mice”, “[…],” for “C (46) (FASgen,”, “[…].” for “C75 i.p./AICAR i.c.v.”

[2] = test system: hypothalamic AMPKα (α1 and α2); test: Western blot of phosphorylated AMPKα in hypothalamus; assay type: in vivo, mice; settings: 30 min after i.c.v. injection
Protocol: Hypothalami were dissected using as landmarks the optic chiasm rostrally, and the mammillary bodies caudally to a depth of 2 mm. Dissected hypothalamic and liver tissue were immediately frozen in liquid nitrogen. Tissues were homogenized in 200 μl of lysis buffer (50 mM Tris-HCl, pH 7.5, 250 mM sucrose, 5 mM sodium pyrophosphate, 50 mM NaF, 1 mM EDTA, 1 mM EGTA, 1 mM DTT, 0.5 mM PMSF, 0.1 mM benzamidine, 50 μg/ml leupeptin, 50 μg/ml soybean trypsin inhibitor). SDS detergent was added to a final 0.2%, and lysates were boiled for 5 min. After the supernatant was harvested, protein concentration was determined by BCA kit (Bio Rad). Phosphorylation of AMPKα was determined on a 4-15% gradient SDS-polyacrylamide gel using anti-phospho-AMPKα (α1 and α2, Thr172) antibody (1:1000, Cell Signaling). Anti-AMPKαt antibody (α1 and α2, 1:1000, Cell Signaling) was used as a loading control.

pCREB = test: Immunohistochemistry of pCREB in the arcuate nucleus; assay type: in vivo, mice; settings: AICAR (3 mg) i.c.v., 20 hr after injection
Protocol: Free-floating sections were blocked in PBS containing 5% goat serum, 0.1% BSA, 0.05% Triton-X100, 1 mM NaF for 1 hr at room temperature and incubated with anti-phospho-AMPKα (α1 and α2) antibody (1:100) or anti-phospho-CREB antibody (1:500, Cell Signaling) in PBS containing 1% goat serum, 0.1% BSA, 0.05% Triton-X100, 1 mM NaF overnight at 4° C. Signal was visualized by Vectastain ABC kit (Vector). Images of in situ hybridization and immunohistochemistry were visualized using an Axiocam HRc digital camera (Carl Zeiss) and images were acquired using Improvision Openlab software, and quantified by NIH Image program (Macro).

hypothalamic NPY = test system: hypothalamic NPY
Protocol: Hypothalamic total RNA was purified using Trizol reagent (Gibco-BRL) and Northern blot analysis using 15 μg of total RNA was performed as described by Kim, et al, Am J Physiol Endocrinol Metab., 283, […]-879 (2002). RNA was hybridized with random primed ^32P-labeled DNA probes made from cloned plasmids of mouse AGRP (Genebank #U89486), human NPY (XM004941), rat CART (U10071), and mouse POMC (AH005319). As a loading control, the probe for mouse GAPDH gene was used at the same blot. The signals were quantified using an image analyzer (Molecular Dynamics) and Imagequant software.

[3] = chronic subcutaneous AICAR 1 g/kg bodyweight for 4 weeks; cited from earlier work

Structure (SMILES): NC(=O)c1ncn([C@@H]2O[C@H](CO)[C@@H](O)[C@H]2O)c1N [AICAR, 5-aminoimidazole-4-carboxamide-1-b-D-ribofuranoside]
- food intake, % of control (BALB/c male mice; AICAR 3 μg i.c.v., 3-24 hr): 135%
- total 24 hr food intake, % of control (BALB/c male mice; AICAR 3 μg i.c.v., total 24 hr): 130 % of control
- food intake, % of control (BALB/c male mice; AICAR 3 μg i.c.v., within 1 hr): 230%
- food intake at 1 hr, % of the amount of C75/saline treatment (BALB/c male mice; C75 5 mg/kg i.p. followed 1 hr later by AICAR 3 mg i.c.v., p<0.001): 346%
- bodyweight ([1]; AICAR single dose 3 μg i.c.v.): no significant effect on bodyweight
- C75-induced decrease in hypothalamic pAMPKα levels ([2]; i.p. C75 and i.c.v. AICAR): completely reversed
- hypothalamic pAMPKα level ([2]; i.p. RPMI and i.c.v. AICAR, vs vehicle): increased
- pCREB level in the arcuate, % of control (pCREB): 231 % of control
- hypothalamic NPY expression (hypothalamic NPY; AICAR (3 mg) i.c.v., 20 hrs after administration, p<0.001): significantly increased
- NPY expression (hypothalamic NPY; AICAR i.c.v., within 5 hr (data not shown)): no change
- bodyweight [3]: no impact
- fat pad mass [3]: reduction in fat pad mass
- food intake [3]: no impact
- liver mass [3]: increase in liver mass

Structure (SMILES): c1cc(-c2cnn3cc(-c4ccc(OCCN5CCCCC5)cc4)cnc23)ccn1 [compound C]
- reduction in food intake (BALB/c male mice; 0-1 hr): 36.2%
- reduction in food intake (BALB/c male mice; 3-24 hr): 37.8%
- reduction in food intake (BALB/c male mice; over 24 hr): 35.6%
- food intake, % of control (BALB/c male mice; compound C 30 mg/kg bodyweight i.p., 0-1 hr): 27.4 % of control
- food intake, % of control (BALB/c male mice; compound C 30 mg/kg bodyweight i.p., 1-3 hr): 3.68 % of control
- food intake, % of control (BALB/c male mice; compound C 30 mg/kg bodyweight i.p., 3-24 hr): 65.7 % of control
- food intake, % of control (BALB/c male mice; compound C 30 mg/kg bodyweight i.p., total): 57.8 % of control
- bodyweight ([1]; compound C 5 mg i.c.v.): weight loss
